The test system of this test is T1, L-asparaginase I (asparaginase I).
T1 construct: gene ASPG1
To be noted: 50 mM Tris-HCl pH 8.0, 50 mM KCl, 37 °C (standard assay); L-asparagine 2-20 mM.

Structures are written as SMILES.

Broadly, the Km is the substrate concentration at which the rate is half of its maximum.

Consider `NC(=O)C[C@H](N)C(=O)O` [L-asparagine], for which the Michaelis-Menten constant (Km) was determined as 6.72 mM.

For the origin of these results see PMC4564614, “Purification and Characterization of Asparaginase from Phaseolus vulgaris Seeds” (Evidence-based Complementary and Alternative Medicine : eCAM, 2015).
